In ChEMBL document CHEMBL1201862, “PubChem BioAssay data set” (2004):
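A five-concentration, 48-hour dose response in 96-well plates underlies each endpoint, interpolated linearly between surrounding concentrations. Abbreviation: GI50, concentration required for 50% inhibition of growth.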 The source made the active and inactive calls. Cut-off read from the data, not from the text of the source: active = GI50 up to about 1.1 µM and inactive = higher.

How the values were obtained:
Test in all cases: NCI anticancer screen, dose series, 48 h
786-0 = tested on: 786-0
A498 = tested on: A498
A549 = tested on: A549
ACHN = tested on: ACHN
BT-549 = tested on: BT-549
CAKI-1 = tested on: CAKI-1
CCRF-CEM = tested on: CCRF-CEM
COLO 205 = tested on: COLO 205
DU-145 = tested on: DU-145
EKVX = tested on: EKVX
HCC 2998 = tested on: HCC 2998
HCT-116 = tested on: HCT-116
HCT-15 = tested on: HCT-15
HL-60 = tested on: HL-60
HOP-62 = tested on: HOP-62
HOP-92 = tested on: HOP-92
HT-29 = tested on: HT-29
Hs-578T = tested on: Hs-578T
IGROV-1 = tested on: IGROV-1
K562 = tested on: K562
KM12 = tested on: KM12
LOX IMVI = tested on: LOX IMVI
M14 = tested on: M14
MCF7 = tested on: MCF7
MDA-MB-231 = tested on: MDA-MB-231
MDA-MB-435 = tested on: MDA-MB-435
MDA-N = tested on: MDA-N
MOLT-4 = tested on: MOLT-4
Malme-3M = tested on: Malme-3M
NCI-H226 = tested on: NCI-H226
NCI-H23 = tested on: NCI-H23
NCI-H460 = tested on: NCI-H460
NCI-H522 = tested on: NCI-H522
NCI/ADR-RES = tested on: NCI/ADR-RES
OVCAR-3 = tested on: OVCAR-3
OVCAR-4 = tested on: OVCAR-4
OVCAR-5 = tested on: OVCAR-5
OVCAR-8 = tested on: OVCAR-8
PC-3 = tested on: PC-3
RPMI-8226 = tested on: RPMI-8226
RXF 393 = tested on: RXF 393
SF-268 = tested on: SF-268
SF-295 = tested on: SF-295
SF-539 = tested on: SF-539
SK-MEL-28 = tested on: SK-MEL-28
SK-MEL-2 = tested on: SK-MEL-2
SK-MEL-5 = tested on: SK-MEL-5
SK-OV-3 = tested on: SK-OV-3
SN12C = tested on: SN12C
SNB-19 = tested on: SNB-19
SR = tested on: SR
SW-620 = tested on: SW-620
T47D = tested on: T47D
TK-10 = tested on: TK-10
U-251 = tested on: U-251
UACC-257 = tested on: UACC-257
UACC-62 = tested on: UACC-62
SNB-75 = tested on: SNB-75
UO-31 = tested on: UO-31

`O=C1c2ccccc2C(=O)N1c1ccc(OCCN2CCCCC2)cc1` was tested, and the GI50 (786-0) was > 100 µM (inactive), the GI50 (A498) was > 100 µM (inactive) and the GI50 (A549) was > 100 µM (inactive). The GI50 (ACHN) was > 100 µM (inactive), the GI50 (BT-549) was > 100 µM (inactive) and the GI50 (CAKI-1) was > 100 µM (inactive). The GI50 (CCRF-CEM) was > 100 µM (inactive), the GI50 (COLO 205) was > 100 µM (inactive) and the GI50 (DU-145) was > 100 µM (inactive). For the same compound, the GI50 (EKVX) was > 100 µM (inactive), the GI50 (HCC 2998) was > 100 µM (inactive) and the GI50 (HCT-116) was > 100 µM (inactive). The GI50 (HCT-15) was greater than 100 µM, the GI50 (HL-60) was > 100 µM (inactive) and the GI50 (HOP-62) was > 100 µM (inactive). The GI50 (HOP-92) was > 100 µM (inactive), the GI50 (HT-29) was > 100 µM (inactive) and the GI50 (Hs-578T) was > 100 µM (inactive). The GI50 (IGROV-1) was > 100 µM (inactive), the GI50 (K562) was > 100 µM (inactive) and the GI50 (KM12) was > 100 µM (inactive). For the same compound, the GI50 (LOX IMVI) was > 100 µM (inactive), the GI50 (M14) was > 100 µM (inactive) and the GI50 (MCF7) was > 100 µM (inactive). For the same compound, the GI50 (MDA-MB-231) was > 100 µM (inactive), the GI50 (MDA-MB-435) was > 100 µM (inactive) and the GI50 (MDA-N) was > 100 µM (inactive). The GI50 (MOLT-4) was > 100 µM (inactive), the GI50 (Malme-3M) was > 100 µM (inactive) and the GI50 (NCI-H226) was > 100 µM (inactive). For the same compound, the GI50 (NCI-H23) was > 100 µM (inactive), the GI50 (NCI-H460) was > 100 µM (inactive) and the GI50 (NCI-H522) was > 100 µM (inactive). The GI50 (NCI/ADR-RES) was > 100 µM (inactive), the GI50 (OVCAR-3) was > 100 µM (inactive) and the GI50 (OVCAR-4) was > 100 µM (inactive). The GI50 (OVCAR-5) was > 100 µM (inactive), the GI50 (OVCAR-8) was > 100 µM (inactive) and the GI50 (PC-3) was > 100 µM (inactive). The GI50 (RPMI-8226) was > 100 µM (inactive), the GI50 (RXF 393) was > 100 µM (inactive) and the GI50 (SF-268) was > 100 µM (inactive). For the same compound, the GI50 (SF-295) was > 100 µM (inactive), the GI50 (SF-539) was > 100 µM (inactive) and the GI50 (SK-MEL-28) was > 100 µM (inactive). The GI50 (SK-MEL-2) was > 100 µM (inactive), the GI50 (SK-MEL-5) was > 100 µM (inactive) and the GI50 (SK-OV-3) was > 100 µM (inactive). For the same compound, the GI50 (SN12C) was > 100 µM (inactive), the GI50 (SNB-19) was > 100 µM (inactive) and the GI50 (SR) was > 100 µM (inactive). For the same compound, the GI50 (SW-620) was > 100 µM (inactive), the GI50 (T47D) was > 100 µM (inactive) and the GI50 (TK-10) was > 100 µM (inactive). The GI50 (U-251) was > 100 µM (inactive), the GI50 (UACC-257) was > 100 µM (inactive) and the GI50 (UACC-62) was > 100 µM (inactive).
In the case of `Cc1cc2c(SCc3ccccc3Cl)nc(N)nc2nc1C`, the GI50 (786-0) is reported as > 100 µM (inactive), the GI50 (A498) is reported as > 100 µM (inactive) and the GI50 (A549) is reported as > 100 µM (inactive). The GI50 (ACHN) was > 100 µM (inactive), the GI50 (BT-549) was > 100 µM (inactive) and the GI50 (CAKI-1) was > 100 µM (inactive). The GI50 (CCRF-CEM) was > 100 µM (inactive), the GI50 (COLO 205) was > 100 µM (inactive) and the GI50 (DU-145) was > 100 µM (inactive). For the same compound, the GI50 (EKVX) was > 100 µM (inactive), the GI50 (HCC 2998) was > 100 µM (inactive) and the GI50 (HCT-116) was > 100 µM (inactive). The GI50 (HCT-15) was greater than 100 µM, the GI50 (HL-60) was > 100 µM (inactive) and the GI50 (HOP-62) was > 100 µM (inactive). For the same compound, the GI50 (HOP-92) was 62.4 µM (inactive), the GI50 (HT-29) was > 100 µM (inactive) and the GI50 (Hs-578T) was 36.3 µM (inactive). The GI50 (IGROV-1) was > 100 µM (inactive), the GI50 (KM12) was > 100 µM (inactive) and the GI50 (LOX IMVI) was > 100 µM (inactive). For the same compound, the GI50 (M14) was > 100 µM (inactive), the GI50 (MCF7) was > 100 µM (inactive) and the GI50 (MDA-MB-231) was > 100 µM (inactive). For the same compound, the GI50 (MDA-MB-435) was > 100 µM (inactive), the GI50 (MDA-N) was > 100 µM (inactive) and the GI50 (Malme-3M) was > 100 µM (inactive). The GI50 (NCI-H23) was > 100 µM (inactive), the GI50 (NCI-H460) was > 100 µM (inactive) and the GI50 (NCI-H522) was 21.4 µM (inactive). The GI50 (NCI/ADR-RES) was > 100 µM (inactive), the GI50 (OVCAR-3) was > 100 µM (inactive) and the GI50 (OVCAR-4) was > 100 µM (inactive). For the same compound, the GI50 (OVCAR-5) was > 100 µM (inactive), the GI50 (OVCAR-8) was > 100 µM (inactive) and the GI50 (PC-3) was > 100 µM (inactive). The GI50 (RPMI-8226) was > 100 µM (inactive), the GI50 (RXF 393) was > 100 µM (inactive) and the GI50 (SF-268) was 65.5 µM (inactive). For the same compound, the GI50 (SF-295) was 97.5 µM (inactive), the GI50 (SF-539) was > 100 µM (inactive) and the GI50 (SK-MEL-28) was > 100 µM (inactive). The GI50 (SK-MEL-2) was > 100 µM (inactive), the GI50 (SK-MEL-5) was > 100 µM (inactive) and the GI50 (SK-OV-3) was > 100 µM (inactive). The GI50 (SN12C) was > 100 µM (inactive), the GI50 (SNB-19) was > 100 µM (inactive) and the GI50 (SNB-75) was > 100 µM (inactive). For the same compound, the GI50 (SR) was > 100 µM (inactive), the GI50 (SW-620) was > 100 µM (inactive) and the GI50 (T47D) was > 100 µM (inactive). For the same compound, the GI50 (TK-10) was > 100 µM (inactive), the GI50 (U-251) was > 100 µM (inactive) and the GI50 (UACC-257) was > 100 µM (inactive). For the same compound, the GI50 (UACC-62) was > 100 µM (inactive) and the GI50 (UO-31) was 1.79 µM (inactive).
